Laboratory results from patent US8916552B2, “Pharmaceutical combinations” (Astex Therapeutics Limited, priority 2006, dated 2014).
Structures can show the parent of a compound that is named as a salt. Where two headings read alike, the source gives them in different places.

How the values were obtained:
[1] = Hygroscopicity and rate of solubility of salt forms of compound of formula (1); assay type: physicochemical
[2] = antitumour agent; cited from earlier work
HCT116 cell line = test: Anti-proliferative activity, Alamar Blue assay; assay type: cell-based; conditions: Homo sapiens, HCT-116, 72 h, read-out: IC50 against the HCT116 cell line
Description: The anti-proliferative activities of compounds for use in the combinations of the invention can be determined by measuring the ability of the compounds to inhibition of cell growth in a number of cell lines such as the human colon cancer cell line HCT116. […] The method is based on the ability of viable cells to reduce resazurin to its fluorescent product resorufin. […] The number of viable cells is determined by Alamar Blue assay as before. Cell lines can be obtained from the ECACC (European Collection of cell Cultures).

[3] = target: T1, Human Hsp90α N-terminal domain (Homo sapiens, UniProt P07900); test: Isothermal titration calorimetry (ITC) binding to Hsp90; conditions: pH 7.4
T1 construct: purification of the Human Hsp90α N-terminal domain were performed according to published methods; made in house
Description: The ability of the compounds for use in the combinations of the invention to bind to human Hsp90 proteins was determined using isothermal titration calorimetry.
Isothermal titration calorimetry (ITC) experiments were performed with a VP-ITC titration calorimeter (Microcal Inc., Northampton, Mass., USA). […] All solutions were filtered and degassed prior to a titration being carried out. The enthalpy change resulting from each injection of ligand was obtained through integration of the calorimetric signal. Data were analysed using Origin 7.0 (Microcal Software Inc., Northampton, Mass.). Heats of dilution were estimated using the final injections of each individual titration and subtracted before data fitting. Different ITC experimental formats were employed in order to obtain compound dissociation constants (Kd's) over a wide range of affinities. […] In this type of experiment the stoichiometry parameter (N) was locked at 1 for data fitting.

[4] = Solid-state stability of crystalline L-lactate forms of compound of formula (1); assay type: physicochemical; conditions: lactic acid salts of compound of formula (1)
Text: The term ‘stable’ or ‘stability’ as used herein includes chemical stability and solid state (physical) stability. The term ‘chemical stability’ means that the compound can be stored in an isolated form, or in the form of a formulation in which it is provided in admixture with for example, pharmaceutically acceptable carriers, diluents or adjuvants as described herein, under normal storage conditions, with little or no chemical degradation or decomposition’ for example for a period of six months or more, more usually twelve months or more, for example eighteen months or more. ‘Solid-state stability’ means the compound can be stored in an isolated solid form, or the form of a solid formulation in which it is provided in admixture with, for example, pharmaceutically acceptable carriers, diluents or adjuvants as described herein, under normal storage conditions, with little or no solid-state transformation (e.g. hydration, dehydration, solvatisation, desolvatisation, crystallisation, recrystallisation or solid-state phase transition).

[5] = assay type: physicochemical
Text: Samples for X-ray powder diffraction (XRPD) data collection were gently ground by marble mortar and loaded into a crystallographic capillary (from Hampton Research, Quartz or Glass Type 10, 0.4 or 0.7 mm diameter). Diffraction patterns were collected at room temperature using CuKα radiation (λ=1.5418 Å) from a Rigaku rotating anode RU3HR, Osmic blue confocal optics, ¼ c goniometer and a Rigaku HTC image plate detector. 2D Images were collected while spinning φ axis with a detector to crystal distance of 250 mm. Data collection was controlled by CrystalClear software and 2D images were converted to 1D plot (2θ vs. Intensity) by Datasqueeze (intensity averaged over the azimuthal angle 0<χ<360° for 2θ range 3-30° in 0.02° steps). In house program AstexXRP was used for manipulation and visualisation of 1D XRPD patterns.
It is nominally a tri-hydrate because there are 3 crystal water positions in the asymmetric unit, but they are not 100% occupied at room temperature and laboratory humidity. A saturated solution of form FL1 in methanol:water 9:1 was prepared at room temperature. Slow precipitation with approximately 4 volumes of acetone gave form FL2 which is stable in air.
A saturated solution of form FL1 in THF was prepared at room temperature. Slow precipitation with approximately 4 volumes of heptane gave form FL3.

PKC = conditions: data published 2002; read-out: IC50, inhibition of PKC activity; cited from earlier work
PKG = conditions: data published 2002; read-out: IC50, inhibition of PKG activity; cited from earlier work
OVCAR-3 tumour cells = OVCAR-3 tumour cells in which PKB is amplified; concentrations of 50 and 100 microM; cited from earlier work
PKA = conditions: data published 2002; read-out: IC50, inhibition of PKA activity; cited from earlier work
[6] = mice; doses 10 times more than were needed for antitumour activity; cited from earlier work
[7] = test system: Acute Promyelocytic Leukemia (APL); conditions: cited from earlier work
[8] = test system: P-glycoprotein-overexpressing subline of leukemic cell line CCRF-CEM; conditions: P-glycoprotein-overexpressing subline of CCRF-CEM (Chou et al. 1998); cited from earlier work
[9] = clinical studies; cited from earlier work

**Q.** Which hygroscopicity [1] does the source give for `CC(C)c1cc(C(=O)N2Cc3ccc(CN4CCN(C)CC4)cc3C2)c(O)cc1O` [(2,4-dihydroxy-5-isopropyl-phenyl)-[5-(4-methyl-piperazin-1-ylmethyl)-1,3-dihydro-isoindol-2-yl]-methanone L-lactate salt] here?
**A.** The hygroscopicity was “non-hygroscopic”.

**Q.** And the rate of solubility ([1]; compared with free base and other salts tested (hydrochloric acid, sulphuric acid))?
**A.** Its rate of solubility is “better rate of solubility than the free base and other salts tested”.

**Q.** For `CCN[C@H]1CO[C@@H](O[C@H]2[C@H](O[C@H]3C#C/C=C\C#C[C@]4(O)CC(=O)C(NC(=O)OC)=C3/C4=C\CSSSC)O[C@H](C)[C@@H](NO[C@H]3C[C@H](O)[C@H](SC(=O)c4c(C)c(I)c(O[C@@H]5O[C@@H](C)[C@H](O)[C@@H](OC)[C@H]5O)c(OC)c4OC)[C@@H](C)O3)[C@@H]2O)C[C@@H]1OC` [Calicheamicin], which “potency relative to adriamycin” value [2] is on record?
**A.** The value was “over 1,000 times”.

**Q.** Which IC50 (HCT116 cell line) does the source give for `CC(C)c1cc(C(=O)N2Cc3ccccc3C2)c(O)cc1O` [Example 5, (1,3-Dihydro-isoindol-2-yl)-(2,4-dihydroxy-5-isopropyl-phenyl)-methanone] here?
**A.** The IC50 was under 1 µM.

**Q.** Which IC50 (HCT116 cell line) does the source give for `CC(C)c1cc(C(=O)N2Cc3ccc(C(=O)N4CCNCC4)cc3C2)c(O)cc1O` [Example 54, (2,4-dihydroxy-5-isopropyl-phenyl)-[5-(piperazine-1-carbonyl)-1,3-dihydro-isoindol-2-yl]-methanone hydrochloride] here?
**A.** The IC50 was under 1 µM.

**Q.** Which Kd [3] does the source give for `CC(C)c1cc(C(=O)N2Cc3ccc(CN4CCN(C)CC4)cc3C2)c(O)cc1O` [Example 55, (2,4-dihydroxy-5-isopropyl-phenyl)-[5-(4-methyl-piperazin-1-ylmethyl)-1,3-dihydro-isoindol-2-yl]-methanone] here?
**A.** The Kd was under 0.1 µM.

**Q.** Which results are given for `CC(C)c1cc(C(=O)N2Cc3ccc(CN4CCN(C)CC4)cc3C2)c(O)cc1O` [FL1, (2,4-dihydroxy-5-isopropyl-phenyl)-[5-(4-methyl-piperazin-1-ylmethyl)-1,3-dihydro-isoindol-2-yl]-methanoneL-lactate]?
**A.** stability of crystalline form [4]: stable; stability of crystal form at 40° C. and 75% RH [5]: stable in air and at 40 °C and 75% RH for at least one month; stability of crystal form in air [5]: stable in air

**Q.** For `CC(C)c1cc(C(=O)N2Cc3ccc(CN4CCN(C)CC4)cc3C2)c(O)cc1O` [FL2, (2,4-dihydroxy-5-isopropyl-phenyl)-[5-(4-methyl-piperazin-1-ylmethyl)-1,3-dihydro-isoindol-2-yl]-methanoneL-lactate], which “stability of crystalline form” value [4] is on record?
**A.** Its value is “stable”.

**Q.** What about the “stability of crystal form in air” value [5] of the same molecule?
**A.** The value was “stable in air”.

**Q.** What does the source list for `CC(C)c1cc(C(=O)N2Cc3ccc(CN4CCN(C)CC4)cc3C2)c(O)cc1O` [FL3, (2,4-dihydroxy-5-isopropyl-phenyl)-[5-(4-methyl-piperazin-1-ylmethyl)-1,3-dihydro-isoindol-2-yl]-methanoneL-lactate]?
**A.** stability of crystalline form [4]: unstable; stability of crystal form in air ([5]; 2 days): transforms in air into form FL1

**Q.** Which IC50 (PKC) does the source give for `O=S(=O)(NCCNCC=C(c1ccccc1)c1ccccc1)c1cccc2cnccc12` [NL-71-101] here?
**A.** Its IC50 is 104 µM.

**Q.** What about the IC50 (PKG) of the same molecule?
**A.** Its IC50 is 36 µM.

**Q.** What about the induction of apoptosis (OVCAR-3 tumour cells) of the same molecule?
**A.** Its induction of apoptosis is “induced apoptosis”.

**Q.** What about the IC50 (PKA) of the same molecule?
**A.** Its IC50 is 9 µM.

**Q.** Which “adverse effects in vivo” value [6] does the source give for `CCOC(=O)c1ccc2[nH]c3c(OC)c4[nH]c5ccc(C(=O)OCC)cc5c4cc3c2c1` [SR-13668] here?
**A.** The value was “no adverse effects”.

**Q.** Which “remissions induced in APL patients” value [7] does the source give for `CC1=C(/C=C/C(C)=C/C=C/C(C)=C/C(=O)O)C(C)(C)CCC1` [Tretinoin, all-trans retinoic acid] here?
**A.** Its value is 64-100%.

**Q.** For `C/C1=C/C[C@@H](/C(C)=C/c2csc(C)n2)OC(=O)C[C@H](O)C(C)(C)C(=O)[C@H](C)[C@@H](O)[C@@H](C)CCC1` [desoxyepothilone B], which IC50 [8] is on record?
**A.** Its IC50 is 0.017 µM.

**Q.** For Perifosine [KRX-0401], which half-life [9] is on record?
**A.** The half-life was about 100 h.
